Reference: the NIST ThermoML archive (doi:10.1016/j.jct.2008.09.002)

Experiments:
[1] = molar heat capacity at constant pressure; xn = mol fraction of the nth substance listed; settings: 101.3 kPa, Liquid, Small sample (50 mg) DSC
[2] = xn = mol fraction of the nth substance listed; settings: 101.3 kPa, Liquid, Vibrating tube method

C[N+](=O)[O-] [nitromethane] + CCCCn1cc[n+](C)c1.F[B-](F)(F)F
Settings	mass density [kg/m3]	molar heat capacity at constant pressure [J/K/mol]
[1], 293.15 K, x2 = 0.0525	–	119.2
[1], 293.15 K, x2 = 0.1029	–	131.6
[1], 293.15 K, x2 = 0.1943	–	154.9
[1], 293.15 K, x2 = 0.2941	–	180.5
[1], 293.15 K, x2 = 0.3911	–	205.4
[1], 293.15 K, x2 = 0.5609	–	248.8
[1], 293.15 K, x2 = 0.7062	–	285.8
[1], 293.15 K, x2 = 0.7578	–	299
[1], 293.15 K, x2 = 0.897	–	334.5
[1], 293.15 K, x2 = 0.9436	–	346.4
[1], 293.15 K, x2 = 0.9716	–	353.6
[1], 298.15 K, x2 = 0.0525	–	119.6
[1], 298.15 K, x2 = 0.1029	–	132.1
[1], 298.15 K, x2 = 0.1943	–	155.6
[1], 298.15 K, x2 = 0.2941	–	181.5
[1], 298.15 K, x2 = 0.3911	–	206.7
[1], 298.15 K, x2 = 0.5609	–	250.6
[1], 298.15 K, x2 = 0.7062	–	288.1
[1], 298.15 K, x2 = 0.7578	–	301.4
[1], 298.15 K, x2 = 0.897	–	337.4
[1], 298.15 K, x2 = 0.9436	–	349.5
[1], 298.15 K, x2 = 0.9716	–	356.7
[1], 303.15 K, x2 = 0.0525	–	120
[1], 303.15 K, x2 = 0.1029	–	132.7
[1], 303.15 K, x2 = 0.1943	–	156.4
[1], 303.15 K, x2 = 0.2941	–	182.5
[1], 303.15 K, x2 = 0.3911	–	208
[1], 303.15 K, x2 = 0.5609	–	252.3
[1], 303.15 K, x2 = 0.7062	–	290.2
[1], 303.15 K, x2 = 0.7578	–	303.7
[1], 303.15 K, x2 = 0.897	–	340
[1], 303.15 K, x2 = 0.9436	–	352.3
[1], 303.15 K, x2 = 0.9716	–	359.5
[1], 308.15 K, x2 = 0.0525	–	120.5
[1], 308.15 K, x2 = 0.1029	–	133.3
[1], 308.15 K, x2 = 0.1943	–	157.1
[1], 308.15 K, x2 = 0.2941	–	183.3
[1], 308.15 K, x2 = 0.3911	–	209.1
[1], 308.15 K, x2 = 0.5609	–	253.8
[1], 308.15 K, x2 = 0.7062	–	292.1
[1], 308.15 K, x2 = 0.7578	–	305.6
[1], 308.15 K, x2 = 0.897	–	342.3
[1], 308.15 K, x2 = 0.9436	–	354.7
[1], 308.15 K, x2 = 0.9716	–	362
[1], 313.15 K, x2 = 0.0525	–	121
[1], 313.15 K, x2 = 0.1029	–	133.9
[1], 313.15 K, x2 = 0.1943	–	157.8
[1], 313.15 K, x2 = 0.2941	–	184.1
[1], 313.15 K, x2 = 0.3911	–	210.1
[1], 313.15 K, x2 = 0.5609	–	255.1
[1], 313.15 K, x2 = 0.7062	–	293.7
[1], 313.15 K, x2 = 0.7578	–	307.3
[1], 313.15 K, x2 = 0.897	–	344.2
[1], 313.15 K, x2 = 0.9436	–	356.8
[1], 313.15 K, x2 = 0.9716	–	364.1
[1], 318.15 K, x2 = 0.0525	–	121.4
[1], 318.15 K, x2 = 0.1029	–	134.3
[1], 318.15 K, x2 = 0.1943	–	158.3
[1], 318.15 K, x2 = 0.2941	–	184.7
[1], 318.15 K, x2 = 0.3911	–	210.9
[1], 318.15 K, x2 = 0.5609	–	256.2
[1], 318.15 K, x2 = 0.7062	–	295.1
[1], 318.15 K, x2 = 0.7578	–	308.7
[1], 318.15 K, x2 = 0.897	–	345.9
[1], 318.15 K, x2 = 0.9436	–	358.5
[1], 318.15 K, x2 = 0.9716	–	365.8
[2], 293.15 K, x2 = 0.1007	1167	–
[2], 293.15 K, x2 = 0.2066	1181.1	–
[2], 293.15 K, x2 = 0.2597	1185.9	–
[2], 293.15 K, x2 = 0.3069	1189.3	–
[2], 293.15 K, x2 = 0.3957	1194.4	–
[2], 293.15 K, x2 = 0.41	1195	–
[2], 293.15 K, x2 = 0.4866	1198.1	–
[2], 293.15 K, x2 = 0.5058	1198.7	–
[2], 293.15 K, x2 = 0.6016	1201.5	–
[2], 293.15 K, x2 = 0.6455	1202.6	–
[2], 293.15 K, x2 = 0.6837	1203.4	–
[2], 293.15 K, x2 = 0.7793	1205.1	–
[2], 293.15 K, x2 = 0.8867	1206.5	–
[2], 298.15 K, x2 = 0.1007	1161.3	–
[2], 298.15 K, x2 = 0.2066	1176.1	–
[2], 298.15 K, x2 = 0.2597	1181.1	–
[2], 298.15 K, x2 = 0.3069	1184.7	–
[2], 298.15 K, x2 = 0.3957	1190	–
[2], 298.15 K, x2 = 0.41	1190.6	–
[2], 298.15 K, x2 = 0.4866	1193.9	–
[2], 298.15 K, x2 = 0.5058	1194.6	–
[2], 298.15 K, x2 = 0.6016	1197.5	–
[2], 298.15 K, x2 = 0.6455	1198.6	–
[2], 298.15 K, x2 = 0.6837	1199.5	–
[2], 298.15 K, x2 = 0.7793	1201.3	–
[2], 298.15 K, x2 = 0.8867	1202.9	–
[2], 303.15 K, x2 = 0.1007	1155.7	–
[2], 303.15 K, x2 = 0.2066	1171.1	–
[2], 303.15 K, x2 = 0.2597	1176.4	–
[2], 303.15 K, x2 = 0.3069	1180.1	–
[2], 303.15 K, x2 = 0.3957	1185.6	–
[2], 303.15 K, x2 = 0.41	1186.3	–
[2], 303.15 K, x2 = 0.4866	1189.7	–
[2], 303.15 K, x2 = 0.5058	1190.4	–
[2], 303.15 K, x2 = 0.6016	1193.5	–
[2], 303.15 K, x2 = 0.6455	1194.7	–
[2], 303.15 K, x2 = 0.6837	1195.6	–
[2], 303.15 K, x2 = 0.7793	1197.5	–
[2], 303.15 K, x2 = 0.8867	1199.2	–
[2], 308.15 K, x2 = 0.1007	1150	–
[2], 308.15 K, x2 = 0.2066	1166	–
[2], 308.15 K, x2 = 0.2597	1171.5	–
[2], 308.15 K, x2 = 0.3069	1175.4	–
[2], 308.15 K, x2 = 0.3957	1181.2	–
[2], 308.15 K, x2 = 0.41	1181.9	–
[2], 308.15 K, x2 = 0.4866	1185.5	–
[2], 308.15 K, x2 = 0.5058	1186.3	–
[2], 308.15 K, x2 = 0.6016	1189.5	–
[2], 308.15 K, x2 = 0.6455	1190.8	–
[2], 308.15 K, x2 = 0.6837	1191.7	–
[2], 308.15 K, x2 = 0.7793	1193.7	–
[2], 308.15 K, x2 = 0.8867	1195.6	–
[2], 313.15 K, x2 = 0.1007	1144.4	–
[2], 313.15 K, x2 = 0.2066	1161.1	–
[2], 313.15 K, x2 = 0.2597	1166.8	–
[2], 313.15 K, x2 = 0.3069	1170.9	–
[2], 313.15 K, x2 = 0.3957	1176.9	–
[2], 313.15 K, x2 = 0.41	1177.6	–
[2], 313.15 K, x2 = 0.4866	1181.4	–
[2], 313.15 K, x2 = 0.5058	1182.2	–
[2], 313.15 K, x2 = 0.6016	1185.5	–
[2], 313.15 K, x2 = 0.6455	1186.9	–
[2], 313.15 K, x2 = 0.6837	1187.9	–
[2], 313.15 K, x2 = 0.7793	1190	–
[2], 313.15 K, x2 = 0.8867	1191.9	–
[2], 318.15 K, x2 = 0.1007	1138.7	–
[2], 318.15 K, x2 = 0.2066	1156.1	–
[2], 318.15 K, x2 = 0.2597	1162.1	–
[2], 318.15 K, x2 = 0.3069	1166.3	–
[2], 318.15 K, x2 = 0.3957	1172.5	–
[2], 318.15 K, x2 = 0.41	1173.3	–
[2], 318.15 K, x2 = 0.4866	1177.2	–
[2], 318.15 K, x2 = 0.5058	1178	–
[2], 318.15 K, x2 = 0.6016	1181.6	–
[2], 318.15 K, x2 = 0.6455	1183	–
[2], 318.15 K, x2 = 0.6837	1184	–
[2], 318.15 K, x2 = 0.7793	1186.3	–
[2], 318.15 K, x2 = 0.8867	1188.3	–
